Measured values reported in BindingDB's records for doi:10.7270/Q2SJ1J25 (Burnham Center For Chemical Genomics, 2010).
pEC50: −log10 of the molar value.

Target: Alkaline phosphatase, placental type (Homo sapiens, UniProt P05187)
Assay: PLAP enzyme activators, dose response, mouse IAP activator project, biochemical, uHTS hits (AID 488878)

Sequence of Alkaline phosphatase, placental type (P05187 whole entry, looked up): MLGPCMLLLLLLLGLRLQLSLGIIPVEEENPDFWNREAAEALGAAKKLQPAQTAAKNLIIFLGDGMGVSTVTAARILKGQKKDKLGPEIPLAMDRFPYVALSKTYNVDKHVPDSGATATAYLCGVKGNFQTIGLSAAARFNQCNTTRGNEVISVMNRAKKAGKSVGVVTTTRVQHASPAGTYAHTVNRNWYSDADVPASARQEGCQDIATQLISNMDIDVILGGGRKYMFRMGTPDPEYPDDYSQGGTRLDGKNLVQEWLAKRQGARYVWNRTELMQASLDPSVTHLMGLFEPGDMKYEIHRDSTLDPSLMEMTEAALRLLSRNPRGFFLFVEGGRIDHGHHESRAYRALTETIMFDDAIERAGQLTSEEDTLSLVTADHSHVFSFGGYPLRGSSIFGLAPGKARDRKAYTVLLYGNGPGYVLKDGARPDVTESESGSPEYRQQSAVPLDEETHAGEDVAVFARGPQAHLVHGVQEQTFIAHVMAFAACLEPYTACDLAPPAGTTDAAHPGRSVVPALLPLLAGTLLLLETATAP

pEC50	Structure (SMILES)
4.59	CN(CCO)c1ccc(CN=Nc2ccc([N+](=O)[O-])cc2S(=O)(=O)Nc2ccccc2C(=O)O)cc1
4.53	O=C(NN=CC1=CC(=O)C(=O)CC1)NN=CC1=CC(=O)C(=O)CC1 [1,3-bis[[(Z)-(3-hydroxy-4-oxocyclohexa-2,5-dien-1-ylidene)methyl]amino]urea]
< 4.00	O=C1CC(=O)c2c(O)cc(O)c(O)c2C1=O [4,5,7,8-tetrahydroxy-1,2-naphthoquinone]
4.62	O=c1ccc2cc3c([nH]c4ccc(Br)cc43)oc-2c1O [9-bromo-4-hydroxy-6H-[1]benzopyrano[2,3-b]indol-3-one]
< 4.00	Oc1ccc(CN=Nc2cc(N3CCCC3)nc(N3CCCC3)n2)cc1O [(4Z)-4-[[2-(2,6-dipyrrolidin-1-ylpyrimidin-4-yl)hydrazinyl]methylidene]-2-hydroxycyclohexa-2,5-dien-1-one]
< 4.00	C#CCOCCOCCOCCNc1nc(N2CCN(C(=O)CCCCCCCCCCNC(=O)Cn3cc(CCCCCN)nn3)CC2)nc(N2CCN(C(=O)CCCCCCCCCCNC(=O)Cn3cc(C[C@@H](C)O)nn3)CC2)n1 [KG-TG]
< 4.00	C#CCOCCOCCOCCNc1nc(N2CCN(C(=O)CCCCCCCCCCNC(=O)[C@@H](CCC(=O)O)n3cc(CCCCCN)nn3)CC2)nc(N2CCN(C(=O)CCCCCCCCCCNC(=O)[C@H]([C@@H](C)CC)n3cc(CCCCCN)nn3)CC2)n1 [KI-KE]
4.63	Nc1c(/C=C2/C=CC(=O)C(O)=C2)c(=O)nc2sc(CC(=O)N3CCCCC3)nn12 [MLS001139223]
5.01	Nc1c(/C=C2/C=CC(=O)C(O)=C2)c(=O)nc2sc(CC(=O)N3CCCC3)nn12 [MLS001139292]
4.18	Cc1cc(=O)[nH]c(N=NCc2ccc(O)c(O)c2)n1 [MLS001194906]
4.08	CS(=O)(=O)c1ccc2c(c1)sc1nc(=O)c(/C=C3/C=CC(=O)C(O)=C3)c(N)n12 [SMR000415838]
< 4.00	O=C1C=CC(/C=C/c2nc(O)c([N+](=O)[O-])c(=O)[nH]2)C=C1O (stereo not drawn) [SMR000524347]
4.65	C[C@@H]1O[C@@H](O[C@H]2[C@H](O)[C@@H](O)[C@H](Oc3c(-c4ccc(O)c(O)c4)oc4cc(O)cc(=O)c-4c3O)O[C@@H]2CO)[C@H](O)[C@H](O)[C@H]1O [quercetin-3-rham(4)-gluc]
